Laboratory results: PubChem BioAssay (NCI)
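How tested: cells in 96-well plates exposed to compound for 48 hours at five concentrations. The concentration for 50% growth inhibition is given as GI50. The concentration for full growth arrest is given as TGI.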

Key:
Assay in all cases: NCI tumour cell line growth inhibition, 48 h
[1] = test system: HCC-2998 colon
[2] = test system: SF-268 CNS
[3] = test system: RPMI-8226 leukemia
[4] = test system: HCT-15 colon
[5] = test system: T-47D breast
[6] = test system: M14 melanoma
[7] = test system: IGROV1 ovarian
[8] = test system: NCI-H460 lung
[9] = test system: SW-620 colon
[10] = test system: MDA-N
[11] = test system: SN12C renal
[12] = test system: MDA-MB-435
[13] = test system: HOP-92 NSCLC
[14] = test system: MOLT-4 leukemia
[15] = test system: COLO 205 colon
[16] = test system: A498 renal

Work on `COc1ccc2c(c1)-c1[nH]c3ccc(OC)cc3c1CC2` yielded a TGI [1] of 31.4 µM, a TGI [2] of 28.1 µM and a TGI [3] of 48.2 µM. The TGI [4] was 24.8 µM, the TGI [5] was 36.6 µM and the TGI [6] was 29.5 µM. It also gave a TGI [7] of 26.8 µM, a TGI [8] of 32.9 µM and a TGI [9] of 49.4 µM. For the same compound, the TGI [10] was 30.2 µM, the TGI [11] was 29.3 µM and the TGI [12] was 40.2 µM. It also gave a TGI [13] of 36.2 µM, a TGI [14] of 54.4 µM and a TGI [15] of 37.4 µM.
In the case of `O=C1C=CC2(O)OCCN(CCO)C2=C1` (stereo not drawn) (tested in a mixture with another compound), the TGI [1] is reported as > 100 µM, the TGI [2] is reported as > 100 µM and the TGI [3] is reported as > 100 µM. The TGI [4] was > 100 µM, the TGI [5] was > 100 µM and the TGI [6] was > 100 µM. For the same compound, the TGI [16] was > 100 µM, the TGI [7] was > 100 µM and the TGI [8] was > 100 µM. For the same compound, the TGI [9] was > 100 µM, the TGI [10] was > 100 µM and the TGI [11] was > 100 µM. The TGI [12] was > 100 µM, the TGI [13] was > 100 µM and the TGI [14] was > 100 µM. For the same compound, the TGI [15] was > 100 µM.
For `C[N+]1(Cc2ccc(Cl)c(Cl)c2)CCCC1C1CCCN(Cc2ccc(Cl)c(Cl)c2)C1` (stereo not drawn), the TGI [1] was > 100 µM, the TGI [2] was > 100 µM and the TGI [3] was > 100 µM. For the same compound, the TGI [4] was > 100 µM, the TGI [5] was > 100 µM and the TGI [6] was > 100 µM. The TGI [16] was > 100 µM, the TGI [7] was > 100 µM and the TGI [8] was > 100 µM. For the same compound, the TGI [9] was > 100 µM, the TGI [10] was > 100 µM and the TGI [11] was > 100 µM. For the same compound, the TGI [12] was > 100 µM, the TGI [13] was > 100 µM and the TGI [14] was > 100 µM. The TGI [15] was > 100 µM.
`Cc1cc2nc(N3C(=O)/C(=C/c4ccccc4S)N=C3c3ccccc3)sc2cc1C` was tested, and the TGI [1] was > 100 µM, the TGI [2] was > 100 µM and the TGI [3] was > 100 µM. For the same compound, the TGI [4] was > 100 µM, the TGI [5] was > 100 µM and the TGI [6] was > 100 µM. For the same compound, the TGI [16] was 55.1 µM, the TGI [7] was > 100 µM and the TGI [8] was > 100 µM. For the same compound, the TGI [9] was > 100 µM, the TGI [10] was 39.1 µM and the TGI [11] was 82.6 µM. For the same compound, the TGI [12] was 95.9 µM, the TGI [13] was 82.8 µM and the TGI [14] was > 100 µM. For the same compound, the TGI [15] was 98.5 µM.
With `CC(C)(C)OC(=O)NC(CCC(=O)OCc1ccccc1)C(=O)NCCCO` (stereo not drawn) the TGI [1] was > 100 µM, the TGI [2] was > 100 µM and the TGI [3] was > 100 µM. The TGI [4] was > 100 µM, the TGI [5] was > 100 µM and the TGI [6] was > 100 µM. The TGI [16] was > 100 µM, the TGI [7] was > 100 µM and the TGI [8] was > 100 µM. For the same compound, the TGI [9] was > 100 µM, the TGI [10] was > 100 µM and the TGI [11] was > 100 µM. For the same compound, the TGI [12] was > 100 µM, the TGI [13] was > 100 µM and the TGI [14] was > 100 µM.
In the case of `CC1=C(C)C1[N+](=O)[O-]`, the TGI [1] is reported as > 100 µM, the TGI [2] is reported as > 100 µM and the TGI [3] is reported as > 100 µM. The TGI [4] was > 100 µM, the TGI [5] was > 100 µM and the TGI [6] was > 100 µM. For the same compound, the TGI [16] was > 100 µM, the TGI [7] was > 100 µM and the TGI [8] was > 100 µM. For the same compound, the TGI [9] was > 100 µM, the TGI [10] was > 100 µM and the TGI [11] was > 100 µM. For the same compound, the TGI [12] was > 100 µM, the TGI [13] was > 100 µM and the TGI [14] was > 100 µM. The TGI [15] was > 100 µM.
With `COC(=O)[C@@H](NC(=O)N(CCC#N)CCCN(C(=O)N[C@H](Cc1ccccc1)C(=O)OC)c1ccccc1)C(C)C` the TGI [1] was > 100 µM, the TGI [2] was > 100 µM and the TGI [3] was > 100 µM. The TGI [4] was > 100 µM, the TGI [5] was > 100 µM and the TGI [6] was > 100 µM. For the same compound, the TGI [16] was > 100 µM, the TGI [7] was > 100 µM and the TGI [9] was > 100 µM. The TGI [10] was > 100 µM, the TGI [11] was > 100 µM and the TGI [12] was > 100 µM. The TGI [13] was 80 µM, the TGI [14] was > 100 µM and the TGI [15] was > 100 µM.
`O=C1CCCC1C(O)(C(F)(F)F)C(F)(F)F` (stereo not drawn) was tested, and the TGI [1] was > 100 µM, the TGI [2] was > 100 µM and the TGI [3] was > 100 µM. For the same compound, the TGI [4] was > 100 µM, the TGI [5] was > 100 µM and the TGI [6] was > 100 µM. For the same compound, the TGI [16] was > 100 µM, the TGI [7] was > 100 µM and the TGI [8] was > 100 µM. For the same compound, the TGI [9] was > 100 µM, the TGI [10] was > 100 µM and the TGI [11] was > 100 µM. The TGI [12] was > 100 µM, the TGI [13] was > 100 µM and the TGI [14] was > 100 µM. The TGI [15] was > 100 µM.
Work on `CC1(c2cccc(Cl)c2)CC(c2cccc(Cl)c2)=C(C#N)C(=C(C#N)C#N)N1` (stereo not drawn) yielded a TGI [1] of 30.3 µM, a TGI [2] of 20.1 µM and a TGI [3] of 59.4 µM. For the same compound, the TGI [4] was 33.8 µM, the TGI [5] was 38 µM and the TGI [6] was 31.9 µM. For the same compound, the TGI [16] was 39.3 µM, the TGI [7] was 31.8 µM and the TGI [8] was 94.3 µM. The TGI [9] was > 100 µM, the TGI [10] was 39.7 µM and the TGI [11] was 36.4 µM. For the same compound, the TGI [12] was 35.3 µM, the TGI [13] was 21.4 µM and the TGI [14] was 57.3 µM. The TGI [15] was 29.9 µM.
`CCN(C(C)=O)c1cnc(/C=N/NC(N)=S)c2ccccc12` was tested, and the TGI [1] was > 100 µM, the TGI [2] was > 100 µM and the TGI [3] was > 100 µM. The TGI [4] was > 100 µM, the TGI [5] was > 100 µM and the TGI [6] was > 30.7 µM. The TGI [16] was > 91.6 µM, the TGI [7] was > 100 µM and the TGI [8] was > 39.1 µM. For the same compound, the TGI [9] was > 100 µM, the TGI [10] was > 100 µM and the TGI [11] was > 57.6 µM. For the same compound, the TGI [12] was > 100 µM, the TGI [13] was > 100 µM and the TGI [14] was > 31.5 µM. The TGI [15] was > 100 µM.
For `Cc1c(Cl)c(S(N)(=O)=O)cc2c1NC=NS2(=O)=O`, the TGI [1] was > 100 µM, the TGI [2] was > 100 µM and the TGI [3] was > 100 µM. For the same compound, the TGI [4] was > 100 µM, the TGI [5] was > 100 µM and the TGI [6] was > 100 µM. For the same compound, the TGI [16] was > 100 µM, the TGI [7] was > 100 µM and the TGI [8] was > 100 µM. The TGI [9] was > 100 µM, the TGI [10] was > 100 µM and the TGI [11] was > 100 µM. The TGI [12] was > 100 µM, the TGI [13] was > 100 µM and the TGI [14] was > 100 µM. For the same compound, the TGI [15] was > 100 µM.
`CC(=O)c1cccc(Nc2nc3ccc(Cl)cc3c3[nH]c4ccccc4c23)c1` was tested, and the GI50 [1] was 14.2 µM, the TGI [1] was > 100 µM and the TGI [2] was 36.9 µM. For the same compound, the TGI [3] was > 100 µM, the TGI [4] was > 100 µM and the TGI [5] was 50.6 µM. For the same compound, the TGI [6] was > 100 µM, the GI50 [16] was 2.15 µM and the TGI [16] was 7.26 µM. The TGI [7] was > 48.6 µM, the TGI [8] was 6.41 µM and the TGI [9] was > 85.6 µM. For the same compound, the TGI [10] was > 100 µM, the TGI [11] was > 90.8 µM and the TGI [12] was > 100 µM. For the same compound, the TGI [13] was 13.4 µM, the GI50 [14] was 6.41 µM and the TGI [14] was > 100 µM. It also gave a TGI [15] of 12.8 µM.
With `COc1ccc(N2C(=O)C(C)SC2c2cc3cc(Br)ccc3nc2Cl)cc1` (stereo not drawn) the TGI [1] was > 100 µM, the TGI [2] was > 100 µM and the TGI [3] was > 100 µM. For the same compound, the TGI [4] was > 100 µM, the TGI [5] was > 100 µM and the TGI [6] was > 100 µM. For the same compound, the TGI [16] was > 100 µM, the TGI [7] was > 100 µM and the TGI [8] was > 100 µM. For the same compound, the TGI [9] was > 100 µM, the TGI [10] was > 100 µM and the TGI [11] was > 100 µM. The TGI [12] was 50.5 µM, the TGI [13] was 82.9 µM and the TGI [14] was 79.2 µM. The TGI [15] was > 100 µM.
`N#Cc1cc(-c2nc3c(F)cccc3s2)ccc1N` was tested, and the TGI [2] was > 100 µM, the TGI [3] was > 100 µM and the TGI [4] was > 100 µM. For the same compound, the TGI [5] was > 100 µM, the TGI [6] was > 100 µM and the TGI [16] was > 100 µM. The TGI [7] was > 100 µM, the TGI [8] was > 100 µM and the TGI [9] was > 100 µM. For the same compound, the TGI [10] was > 100 µM, the TGI [11] was > 100 µM and the TGI [12] was > 100 µM. The TGI [13] was > 100 µM, the TGI [14] was > 100 µM and the TGI [15] was > 100 µM.
